Test results from patent US9023789B2, “Amylin analogs and pharmaceutical compositions thereof” (Novo Nordisk A/S, priority 2012, dated 2015).
pIC50: −log10 of the molar value. Values after ≈ are worked out from the molar mass of the structure shown. Read-outs that look alike come from different tables or passages of the source. Numbered stars: 1 amine (or outer) side, 2 acyl side, 3 side chain; on linkers, the order of the positions; unused ones are H or OH. Bridge positions count the residues as written; N and C are the ends. Side chains are listed from the residue outwards. Peptide text beside a SMILES is read from it. * marks the point of attachment. C20 diacid = O=C(O)CCCCCCCCCCCCCCCCCCC(=O)*; γGlu = O=C(O)[C@H](CCC(=O)[*:2])N[*:1]; AEEA = NCCOCCOCC(=O)O

Tests used:
Sprague Dawley (SD) rats = experiment: ASSAY (I) efficacy testing on appetite (food intake) using an ad libitum fed rat model; type: in vivo; details: rat, 30 nmol/kg
How it was run: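 Ad libitum fed SD rats (200–250 g) were housed singly on a reversed light/dark cycle and given one 0.01–3 mg/kg dose ip, po or sc just before lights-off, with 5–8 per dose group plus vehicle controls. Food intake was recorded hourly for 7 h, then at 24 h and sometimes 48 h; Grubbs outliers were excluded.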

[1] = ASSAY (IV) determination of solubility; type: physicochemical
How it was run: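 Dissolve polypeptide in water ([…] stock); combine 1:1 with each 100 mM buffer (glycylglycine pH 3.0/4.0/5.0; bistrispropane pH 6.0/6.5/7.0/7.5/8.0); hold 18 hours at room temperature; centrifuge; quantify polypeptide by UPLC.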

[2] = molecular target: T1, human amylin receptor (membranes from Amylin 3(a)/CRE-luc cells) (Homo sapiens, UniProt O60896+P30988); experiment: ASSAY (V) binding to the human amylin receptor (SPA, 125I-rat amylin);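 also: competition binding of cell membranes (35 ng/µL) mixed with SPA beads in 384-well plates at 40 µL total volume, read by scintillation counting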
T1 construct: expressed in transfected cells
T1 sequence (P30988 25-474): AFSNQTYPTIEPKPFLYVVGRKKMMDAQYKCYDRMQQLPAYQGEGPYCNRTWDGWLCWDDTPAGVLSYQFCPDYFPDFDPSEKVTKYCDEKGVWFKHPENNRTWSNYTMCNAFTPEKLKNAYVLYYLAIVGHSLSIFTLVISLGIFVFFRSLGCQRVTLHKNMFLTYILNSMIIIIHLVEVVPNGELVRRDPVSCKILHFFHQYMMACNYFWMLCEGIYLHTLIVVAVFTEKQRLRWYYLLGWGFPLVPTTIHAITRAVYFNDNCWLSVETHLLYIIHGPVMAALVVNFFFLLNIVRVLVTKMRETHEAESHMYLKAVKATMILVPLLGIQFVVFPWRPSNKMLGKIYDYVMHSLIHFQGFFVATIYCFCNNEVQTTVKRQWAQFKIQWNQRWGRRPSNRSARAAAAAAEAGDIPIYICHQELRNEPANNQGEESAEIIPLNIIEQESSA
T1 sequence (O60896 24-148 partner): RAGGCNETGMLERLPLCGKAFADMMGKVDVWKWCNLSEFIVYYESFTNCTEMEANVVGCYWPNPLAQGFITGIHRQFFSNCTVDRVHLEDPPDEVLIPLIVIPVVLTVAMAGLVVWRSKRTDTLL

[3] = molecular target: T2, rat amylin receptor (rat calcitonin receptor + rat RAMP 3) (Rattus norvegicus, UniProt P32214+Q9JJ73); experiment: ASSAY (VI) binding to the rat amylin receptor; details: for pIC50: binding to rat amylin receptor, read-out: rAmylin-R bind IC50
T2 construct: expressed in transfected cells; host or cells: BHK tk'ts 13 (transient, FuGENE 6), membranes
T2 sequence (P32214 25-479 isoform P32214-2 limits assumed): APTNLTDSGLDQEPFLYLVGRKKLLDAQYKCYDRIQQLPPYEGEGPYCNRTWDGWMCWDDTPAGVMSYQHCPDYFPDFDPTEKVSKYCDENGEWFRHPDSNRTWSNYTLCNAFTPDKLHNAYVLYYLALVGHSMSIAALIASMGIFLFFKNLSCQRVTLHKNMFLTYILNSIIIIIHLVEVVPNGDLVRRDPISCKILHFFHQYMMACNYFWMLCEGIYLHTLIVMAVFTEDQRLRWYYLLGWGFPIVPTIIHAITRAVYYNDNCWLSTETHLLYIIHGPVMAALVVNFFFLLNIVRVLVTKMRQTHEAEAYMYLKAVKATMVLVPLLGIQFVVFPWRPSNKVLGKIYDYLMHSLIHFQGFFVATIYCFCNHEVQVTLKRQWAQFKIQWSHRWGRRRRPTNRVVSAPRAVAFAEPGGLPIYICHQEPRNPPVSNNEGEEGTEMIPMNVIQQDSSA
T2 sequence (Q9JJ73 23-147 partner): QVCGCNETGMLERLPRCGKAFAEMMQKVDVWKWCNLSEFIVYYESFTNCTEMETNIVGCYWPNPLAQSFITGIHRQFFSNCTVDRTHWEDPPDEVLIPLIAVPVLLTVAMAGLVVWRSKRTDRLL
How it was run: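 This assay measured binding to the rat amylin receptor. BHK tk′ts 13 cells were transiently transfected with the rat calcitonin receptor using FuGENE® 6 (Roche), following the manufacturer's recommendations. About 48 hours after transfection, the cells were harvested and membranes were prepared from them for the binding determination.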

rat calcitonin receptor = molecular target: T3, rat calcitonin receptor (Rattus norvegicus, UniProt P32214); experiment: ASSAY (VIII) binding to the rat calcitonin receptor; details: Table 7, read-out: rCTR bind IC50
T3 construct: expressed in transfected cells; host or cells: BHK tk'ts 13 (transient, FuGENE 6), membranes
T3 sequence (P32214 25-479 isoform P32214-2 limits assumed): T2 sequence (P32214 25-479 isoform P32214-2 limits assumed)
How it was run: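 Rat calcitonin receptor is expressed transiently in BHK tk′ts 13 cells cultured in DMEM with 10% FBS. Roughly two days (approximately 48 hours) post-transfection, cells are harvested for membrane preparation.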

[4] = bistrispropane buffer, pH 6.5, read-out: Solubility pH 6.5 Concentration
[5] = bistrispropane buffer, pH 7.5, read-out: Solubility pH 7.5 Concentration
[6] = bistrispropane buffer, pH 6.0, read-out: Solubility pH 6.0 Concentration
[7] = bistrispropane buffer, pH 7.0, read-out: Solubility pH 7.0 Concentration
[8] = bistrispropane buffer, pH 8.0, read-out: Solubility pH 8.0 Concentration
[9] = glycylglycine buffer, pH 3.0, read-out: Solubility pH 3.0 Concentration
[10] = glycylglycine buffer, pH 4.0, read-out: Solubility pH 4.0 Concentration
[11] = glycylglycine buffer, pH 5.0, read-out: Solubility pH 5.0 Concentration
[12] = Table 5, selectivity, hCTR bind IC50 / hAmylin-R bind IC50
[13] = Table 5a, selectivity, hCTR bind IC50 / hAmylin-R bind IC50
[14] = Table 5b, selectivity, hCTR bind IC50 / hAmylin-R bind IC50
[15] = Table 5c, selectivity, hCTR bind IC50 / hAmylin-R bind IC50
[16] = Table 7, human binding selectivity, included for comparison
[17] = Table 7a (preferred compounds), human binding selectivity, included for comparison
[18] = ratio of human calcitonin receptor binding IC50 to human amylin receptor binding IC50
[19] = Table 7, rat binding selectivity, rCTR IC50 / rAmylin-R IC50
[20] = Table 7a (preferred compounds), rat binding selectivity, rCTR IC50 / rAmylin-R IC50
[21] = ratio of rCTR bind IC50 to rAmylin-R bind IC50

SMILES	Food intake reduction 0-24 h 30 nmol/kg (%) (Sprague Dawley (SD) rats)	Food intake reduction 24-48 h 30 nmol/kg (%) (Sprague Dawley (SD) rats)	solubility at 18 h [1, 4] [µM]	solubility at 18 h [1, 5] [µM]	solubility at 18 h [1, 6] [µM]	solubility at 18 h [1, 7] [µM]	solubility at 18 h [1, 8] [µM]	solubility at 18 h [1, 9] [µM]	solubility at 18 h [1, 10] [µM]	solubility at 18 h [1, 11] [µM]	Ratio hCT/hAmylin binding [2, 12]	Ratio hCT/hAmylin binding [2, 13]	Ratio hCT/hAmylin binding [2, 14]	Ratio hCT/hAmylin binding [2, 15]	Ratio hCT/hAmylin binding [2, 16]	Ratio hCT/hAmylin binding [2, 17]	Ratio hCT/hAmylin binding [2, 18]	pIC50 ([3]; Table 7)	Ratio rCT/rAmylin binding [3, 19]	Ratio rCT/rAmylin binding [3, 20]	also measured
CC[C@H](C)[C@H](NC(=O)[C@H](C)NC(=O)CNC(=O)[C@H](Cc1ccccc1)NC(=O)[C@H](CC(N)=O)NC(=O)[C@@H]1CCCN1C(=O)[C@H](CO)NC(=O)[C@H](CO)NC(=O)[C@H](Cc1c[nH]cn1)NC(=O)[C@H](CCCNC(=N)N)NC(=O)[C@H](CC(C)C)NC(=O)[C@H](Cc1ccccc1)NC(=O)[C@H](CC(N)=O)NC(=O)[C@H](C)NC(=O)[C@H](CC(C)C)NC(=O)[C@H](CCCNC(=N)N)NC(=O)[C@H](CCC(N)=O)NC(=O)[C@@H](NC(=O)[C@H](C)NC(=O)[C@@H]1CSSC[C@H](NC(=O)[C@H](CCCNC(=N)N)NC(=O)[C@@H](N)CCCCNC(=O)COCCOCCNC(=O)CC[C@H](NC(=O)CCCCCCCCCCCCCCCCCCC(=O)O)C(=O)O)C(=O)N[C@@H](CC(N)=O)C(=O)N[C@@H]([C@@H](C)O)C(=O)N[C@@H](C)C(=O)N[C@@H]([C@@H](C)O)C(=O)N1)[C@@H](C)O)C(=O)N1CCC[C@H]1C(=O)N[C@@H](CO)C(=O)N[C@@H](CO)C(=O)N[C@H](C(=O)N[C@@H](CC(N)=O)C(=O)N[C@H](C(=O)NCC(=O)N[C@@H](CO)C(=O)N[C@@H](Cc1c[nH]cn1)C(=O)N[C@H](C(=O)N[C@@H](Cc1ccc(O)cc1)C(N)=O)[C@@H](C)O)C(C)C)[C@@H](C)O [Example 45] (H-K([AEEA-γGlu-C20 diacid])RCNTATCATQRLANFLRHSSPNFGAIPSSTNVGSHTY-NH2; disulfide 3-8 (inferred))	27	3	≥ 200	≥ 200	≥ 200	≥ 200	110 (≈ 518 µg/mL)	≥ 200	≥ 200	≥ 200	26.8	26.8	26.8	26.8	26.8	26.8	26.8	9.21	67.1	67.1	Ratio rCT/rAmylin binding [3, 21]: 67.1; pIC50 (rat calcitonin receptor): 7.38
CC[C@H](C)[C@H](NC(=O)[C@H](C)NC(=O)CNC(=O)[C@H](Cc1ccccc1)NC(=O)[C@H](CC(N)=O)NC(=O)[C@@H]1CCCN1C(=O)[C@H](CO)NC(=O)[C@H](CO)NC(=O)[C@H](Cc1c[nH]cn1)NC(=O)[C@H](CCCNC(=N)N)NC(=O)[C@H](CC(C)C)NC(=O)[C@H](Cc1ccccc1)NC(=O)[C@H](CC(N)=O)NC(=O)[C@H](C)NC(=O)[C@H](CC(C)C)NC(=O)[C@H](CCCNC(=N)N)NC(=O)[C@H](CCC(N)=O)NC(=O)[C@@H](NC(=O)[C@H](C)NC(=O)[C@@H]1CSSC[C@H](NC(=O)[C@H](CCCCN)NC(=O)CC[C@H](NC(=O)CCCCCCCCCCCCCCCCCCC(=O)O)C(=O)O)C(=O)N[C@@H](CC(N)=O)C(=O)N[C@@H]([C@@H](C)O)C(=O)N[C@@H](C)C(=O)N[C@@H]([C@@H](C)O)C(=O)N1)[C@@H](C)O)C(=O)N1CCC[C@H]1C(=O)N[C@@H](CO)C(=O)N[C@@H](CO)C(=O)N[C@H](C(=O)N[C@@H](CC(N)=O)C(=O)N[C@H](C(=O)NCC(=O)N[C@@H](Cc1c[nH]cn1)C(=O)N[C@@H](CC(N)=O)C(=O)N[C@H](C(=O)N[C@@H](Cc1ccc(O)cc1)C(N)=O)[C@@H](C)O)C(C)C)[C@@H](C)O [Example 40]	51	26	≥ 200	≥ 200	≥ 200	≥ 200	≥ 200	≥ 200	≥ 200	≥ 200	31.1	31.1	31.1	31.1	31.1	31.1	31.1	8.82	46.2	46.2	Ratio rCT/rAmylin binding [3, 21]: 46.2; pIC50 (rat calcitonin receptor): 7.16
CC[C@H](C)[C@H](NC(=O)[C@H](C)NC(=O)CNC(=O)[C@H](Cc1ccccc1)NC(=O)[C@H](CC(N)=O)NC(=O)[C@@H]1CCCN1C(=O)[C@H](CO)NC(=O)[C@H](CO)NC(=O)[C@H](Cc1c[nH]cn1)NC(=O)[C@H](CCCNC(=N)N)NC(=O)[C@H](CC(C)C)NC(=O)[C@H](Cc1ccccc1)NC(=O)[C@H](Cc1c[nH]cn1)NC(=O)[C@H](C)NC(=O)[C@H](CC(C)C)NC(=O)[C@H](CCCNC(=N)N)NC(=O)[C@H](CCC(N)=O)NC(=O)[C@@H](NC(=O)[C@H](C)NC(=O)[C@@H]1CSSC[C@H](NC(=O)[C@@H](N)CCCCNC(=O)COCCOCCNC(=O)CC[C@H](NC(=O)CCCCCCCCCCCCCCCCCCC(=O)O)C(=O)O)C(=O)N[C@@H](CC(N)=O)C(=O)N[C@@H]([C@@H](C)O)C(=O)N[C@@H](C)C(=O)N[C@@H]([C@@H](C)O)C(=O)N1)[C@@H](C)O)C(=O)N1CCC[C@H]1C(=O)N[C@@H](CO)C(=O)N[C@@H](CO)C(=O)N[C@H](C(=O)N[C@@H](CC(N)=O)C(=O)N[C@H](C(=O)NCC(=O)N[C@@H](Cc1c[nH]cn1)C(=O)N[C@@H](CC(N)=O)C(=O)N[C@H](C(=O)N[C@@H](Cc1ccc(O)cc1)C(N)=O)[C@@H](C)O)C(C)C)[C@@H](C)O [Example 80] (H-K([AEEA-γGlu-C20 diacid])CNTATCATQRLAHFLRHSSPNFGAIPSSTNVGHNTY-NH2; disulfide 2-7; N-terminus assumed)	46	9	≥ 200	≥ 200	≥ 200	≥ 200	≥ 200	≥ 200	≥ 200	≥ 200	68.1	68.1	68.1	68.1	68.1	68.1	68.1	8.78	36.2	36.2	pIC50 ([2]; Table 4, read-out: hAmylin-R bind IC50): 9.54; Ratio rCT/rAmylin binding [3, 21]: 36.2; pIC50 (rat calcitonin receptor): 7.22
